Measured values taken from the NIST ThermoML archive (doi:10.1021/je800110r).

Details: 333.15 K, Liquid, Vibrating tube method

CCCCCCCCCC [decane]
Details | mass density [kg/m3]
19251 kPa | 716.4
19274 kPa | 716.4
19314 kPa | 716.5
19349 kPa | 716.6
19381 kPa | 716.6
19417 kPa | 716.4
19450 kPa | 716.6
19479 kPa | 716.6
19511 kPa | 716.6
19540 kPa | 716.7
19568 kPa | 716.7
19592 kPa | 716.6
19616 kPa | 716.7
19651 kPa | 716.8
19679 kPa | 716.8
19711 kPa | 716.7
19731 kPa | 716.7
19756 kPa | 716.9
19796 kPa | 716.8
19819 kPa | 716.8
19856 kPa | 716.9
19885 kPa | 717
19910 kPa | 716.9
19934 kPa | 717
19963 kPa | 717
19996 kPa | 716.9
20029 kPa | 717.1
20054 kPa | 717.2
20083 kPa | 717
20116 kPa | 717
20150 kPa | 717.1
20188 kPa | 717.1
20228 kPa | 717.3
20254 kPa | 717.2
20284 kPa | 717.3
20318 kPa | 717.2
20356 kPa | 717.3
20390 kPa | 717.3
20425 kPa | 717.4
20464 kPa | 717.3
20494 kPa | 717.3
20525 kPa | 717.4
20552 kPa | 717.5
20579 kPa | 717.5
20606 kPa | 717.4
20628 kPa | 717.4
20654 kPa | 717.5
20695 kPa | 717.6
20730 kPa | 717.5
20769 kPa | 717.6
20801 kPa | 717.6
20841 kPa | 717.6
20873 kPa | 717.7
20900 kPa | 717.7
20931 kPa | 717.7
20959 kPa | 717.8
20996 kPa | 717.7
21022 kPa | 717.8
21055 kPa | 717.8
21176 kPa | 717.9
21204 kPa | 717.9
21251 kPa | 717.9
21280 kPa | 718
21313 kPa | 718.1
21352 kPa | 718.1
21376 kPa | 718.1
21409 kPa | 718.2
21433 kPa | 718.1
21462 kPa | 718.2
21500 kPa | 718.2
21529 kPa | 718.2
21573 kPa | 718.3
21612 kPa | 718.4
21655 kPa | 718.3
21690 kPa | 718.4
21725 kPa | 718.4
21755 kPa | 718.4
21861 kPa | 718.6
21901 kPa | 718.5
21931 kPa | 718.6
21967 kPa | 718.6
22007 kPa | 718.5
22038 kPa | 718.6
22074 kPa | 718.7
22115 kPa | 718.7
22162 kPa | 718.7
22193 kPa | 718.8
22224 kPa | 718.8
22261 kPa | 718.8
22293 kPa | 718.8
22345 kPa | 718.9
22381 kPa | 718.9
22419 kPa | 719
22471 kPa | 719
22498 kPa | 718.9
22530 kPa | 719
22561 kPa | 719
22611 kPa | 719
22649 kPa | 719.1
22677 kPa | 719.1
22726 kPa | 719.1
22771 kPa | 719.2
22816 kPa | 719.2
22849 kPa | 719.4
22899 kPa | 719.3
22927 kPa | 719.4
22959 kPa | 719.3
23000 kPa | 719.3
23038 kPa | 719.5
23068 kPa | 719.3
23096 kPa | 719.5
23134 kPa | 719.6
23172 kPa | 719.5
23219 kPa | 719.5
23252 kPa | 719.6
23281 kPa | 719.5
23314 kPa | 719.6
23339 kPa | 719.7
23382 kPa | 719.7
23416 kPa | 719.8
23452 kPa | 719.7
23491 kPa | 719.8
23539 kPa | 719.9
23579 kPa | 719.7
23623 kPa | 719.9
23657 kPa | 719.9
23697 kPa | 719.9
23726 kPa | 719.9
23766 kPa | 720
23797 kPa | 720
23831 kPa | 719.9
23868 kPa | 720.1
23898 kPa | 720.1
23943 kPa | 720.1
23979 kPa | 720
24014 kPa | 720.1
24049 kPa | 720.1
24085 kPa | 720.1
24131 kPa | 720.3
24177 kPa | 720.3
24224 kPa | 720.2
24260 kPa | 720.2
24308 kPa | 720.3
24355 kPa | 720.4
24402 kPa | 720.5
24433 kPa | 720.5
24481 kPa | 720.5
24513 kPa | 720.5
24550 kPa | 720.5
24586 kPa | 720.6
24618 kPa | 720.6
24656 kPa | 720.6
24700 kPa | 720.6
24738 kPa | 720.7
24783 kPa | 720.8
24815 kPa | 720.9
24859 kPa | 720.8
24897 kPa | 720.9
24935 kPa | 720.9
24974 kPa | 720.7
25013 kPa | 721
25058 kPa | 720.9
25114 kPa | 721.1
25142 kPa | 721
25177 kPa | 721
25213 kPa | 721.1
25259 kPa | 721.1
25303 kPa | 721.2
26374 kPa | 721.9
26417 kPa | 722
26462 kPa | 722.1
26501 kPa | 722
27273 kPa | 722.7
27328 kPa | 722.6
27371 kPa | 722.6
27419 kPa | 722.6
29838 kPa | 724.5
29868 kPa | 724.5
29913 kPa | 724.5
29948 kPa | 724.6
29988 kPa | 724.7
30720 kPa | 725.2
30760 kPa | 725.2
30787 kPa | 725.3
30831 kPa | 725.2
30857 kPa | 725.2
30898 kPa | 725.3
30924 kPa | 725.4
30960 kPa | 725.2
31000 kPa | 725.3
31027 kPa | 725.4
31059 kPa | 725.4
31090 kPa | 725.4
31122 kPa | 725.4
31148 kPa | 725.4
31190 kPa | 725.5
31218 kPa | 725.5
31259 kPa | 725.6
31295 kPa | 725.5
31332 kPa | 725.6
31592 kPa | 725.8
31630 kPa | 725.8
31667 kPa | 725.7
31731 kPa | 725.9
31793 kPa | 725.9
31821 kPa | 725.9
31859 kPa | 726
31893 kPa | 725.9
31921 kPa | 726.1
31956 kPa | 726
31994 kPa | 726
32038 kPa | 726.1
32086 kPa | 726.1
32125 kPa | 726
32150 kPa | 726.2
32479 kPa | 726.4
32505 kPa | 726.4
32549 kPa | 726.4
32589 kPa | 726.4
32625 kPa | 726.4
32670 kPa | 726.7
32696 kPa | 726.6
32737 kPa | 726.6
32780 kPa | 726.6
32812 kPa | 726.5
32850 kPa | 726.6
32883 kPa | 726.6
32910 kPa | 726.7
32948 kPa | 726.7
32985 kPa | 726.7
33027 kPa | 726.8
33070 kPa | 726.8
33098 kPa | 726.9
33136 kPa | 726.8
33179 kPa | 726.8
33213 kPa | 727
33251 kPa | 726.8
33289 kPa | 726.9
33328 kPa | 726.9
33366 kPa | 727
33404 kPa | 727.1
33434 kPa | 727
33473 kPa | 727
33508 kPa | 727
33553 kPa | 727.1
33593 kPa | 727.3
33633 kPa | 727.1
33660 kPa | 727.2
33693 kPa | 727.3
33721 kPa | 727.3
33748 kPa | 727.3
33772 kPa | 727.2
33796 kPa | 727.3
33816 kPa | 727.4
33851 kPa | 727.3
33876 kPa | 727.5
33907 kPa | 727.3
33943 kPa | 727.5
33976 kPa | 727.5
34008 kPa | 727.4
34037 kPa | 727.5
34062 kPa | 727.6
34091 kPa | 727.5
34116 kPa | 727.6
34150 kPa | 727.6
34176 kPa | 727.6
34219 kPa | 727.7
34246 kPa | 727.7
34288 kPa | 727.7
34326 kPa | 727.7
34351 kPa | 727.7
34386 kPa | 727.8
34412 kPa | 727.8
34437 kPa | 727.7
